Assay results: patent US10668149B2, “Combination therapies for heme malignancies with anti-CD38 antibodies and survivin inhibitors” (Janssen Biotech, Inc., priority 2015, dated 2020)
Entries after “also recorded” stand apart in the source; their conditions may differ.

Tests used:
[1] = system: NK cells (CD3−CD138−CD56+ cells); experiment: Effect of YM155 on NK cell viability by FACS; format: cell-based, human; settings: 24 hours
Protocol: FIG. 3. […] HD-PBMCs and patient bone marrow mononuclear cells (BMMNCs) were incubated with the indicated concentrations of YM155 for 24 hours. The number of viable CD3^−CD56^+ NK cells was determined by flow cytometry and the percent lysis was calculated using the untreated samples as negative control. Effect of YM155 on NK cell viability was evaluated first. BM-MNCs of MM patients were cultured in the presence of different doses of YM155 for 24 hours. Viability of MM cells (CD138^+ cells) and NK cells (CD3^−CD138^−CD56^+ cells) were determined by FACS.

MM cell line UM9 = experiment: In vivo tumor targeting, UM9 in humanized BM-like scaffolds; parameters: species or system RAG2−/−γc−/− mice; settings: UM9 scaffolds s.c.; YM155 1 mg/kg/d for 10 days by s.c. infusion pump; T cell-depleted HD-PBMCs given
Excerpt: FIG. 5. Antitumor effect of daratumumab and YM155 combination therapy. Analysis of tumor load per treatment group in RAG2^−/−γc^−− mice implanted with UM9 cells. Hybrid scaffolds coated with human MSCs and loaded with luciferase transduced MM cell line UM9 were implanted subcutaneously in the back of RAG2^−/−γc^−− mice (4 scaffolds per mice). Ten days after implantation, the growing tumors were visualized and quantified by BLI. Different groups of mice (n=4) were then either treated with vehicle control (control) or treated with daratumumab, YM155 or daratumumab plus YM155 as indicated. […] Mice were monitored weekly by BLI. Results are expressed as the mean tumor load in each scaffold. […] The statistical differences between mice treated with daratumumab and mice treated with daratumumab plus YM155 were calculated using the Mann-Whitney U-test. […]
The in vivo relevance of the combination of daratumumab with YM155 was tested in the preclinical xenograft model in RAG2^−/−gc^−/− mice, in which MM tumors were grown in a humanized BM-like niche created by subcutaneous implantation of ceramic scaffolds coated with human BMSCs. […] Ten days after implantation, the growing tumors were visualized and quantified by BLI. […] Mice were monitored weekly by BLI. […] Statistical differences between mice treated with daratumumab and mice treated with daratumumab plus YM155 were calculated using the Mann-Whitney U-test.

MM cells (CD138+ cells) = experiment: Viability of MM cells in BM-MNCs cultured with YM155 by FACS; format: cell-based, human; settings: BM-MNCs of MM patients; different doses of YM155; 24 hours
Protocol: Effect of YM155 on NK cell viability was evaluated first. BM-MNCs of MM patients were cultured in the presence of different doses of YM155 for 24 hours. Viability of MM cells (CD138^+ cells) and NK cells (CD3^−CD138^−CD56^+ cells) were determined by FACS.

RPMI-8226 cells = experiment: Compartment-specific BLI-based ADCC cytotoxicity assay, RPMI-8226; format: cell-based, human; settings: 4 hours; for lysis of cells: daratumumab 0.3 μg/ml, YM155 1 nM, PBMC effector:target 40:1
Protocol: (§1) hBMSC were plated at a density of 1×10^4 cells/well in white opaque flat-bottomed 96-well plates (Costar) in 100 μl culture medium. After an adherence period of six hours, luc-transduced MM cell lines were added at a density of 1×10^4 cells/well in BMSC-coated or uncoated wells. In experiments in which YM155 was tested, YM155 was added at indicated concentrations together with MM cells. After 16-20 hours, daratumumab was added at indicated concentrations and left for 15 minutes at room temperature. Freshly isolated PBMC from healthy individuals were then added as effector cells at the indicated effector target ratios. 4 hours after addition of PBMC, 125 μg/ml beetle luciferin (Promega) was added and the bioluminescent signal emitted from surviving MM cells was determined within 20 minutes using a luminometer (SpectraMax, Molecular Devices). The percentage survival of MM cells was calculated using the formula: % survival=(mean bioluminescent signal in the absence of PBMCs/mean bioluminescent signal in the presence of PBMCs)×100%. In these assays the survival of MM cells is a direct reflection of ADCC mediated lysis and correlates with classical chromium release assays as described in McMillin et al., Nat Med 16:483-489, 2010.
Induction of ADCC by healthy donor BMSCs against two CD38^+ luciferase transduced MM cell lines, UM9 and RPMI was tested with serial concentrations of daratumumab in the presence or absence of HD-PBMCs as effector cells in compartment-specific BLI-based cytotoxicity assays.
In the assays, daratumumab and YM155 were used at a concentration of 0.3 μg/ml and 1 nM, respectively, for RPMI-8226 cells and at a concentration of 1 μg/ml and 120 nM for MM patient samples, respectively. Healthy donor PBMCs were used as effector cells at effector:target cell ratio of 40:1 for RPMI-8226 cells and 30:1 for MM patient samples.

UM9 MM cells = experiment: Compartment-specific BLI-based ADCC cytotoxicity assay, UM9; format: cell-based, human; settings: serial concentrations, PBMC:MM 30:1, 4 hours
Protocol: as §1, with “2010. […]” for “2010.”

primary CD138+ MM cells = experiment: FACS based ADCC assay in Multiple Myeloma BM-MNC; format: cell-based, human; settings: presence of autologous MM-BMSCs; both donors; 24 hours
Protocol: Frozen BM-MNCs from MM patients with 15-35% CD138^+ MM cells were used in FACS-based ADCC assays. The cells were thawed and cultured in 10% HS in RPMI. After 16-20 h, BM-MNCs were counted by trypan blue exclusion and 4×10^4 cells/well were plated in 96 round bottom plates. Daratumumab and/or YM155 were added in the wells as indicated per experiment. After 24 hours, cells were stained with fluorescent conjugated anti-CD138, anti-CD38, anti-CD56 and anti-CD3 antibodies and the survival of primary CD138^+ MM cells in the BM-MNCs was determined by FACS as previously described (Groen et al., Blood 120:e9-e16, 2012). Percentage lysis of MM cells was deduced using the following formula: % lysis cells=1−(counts of surviving CD138^+ cells in treated wells/counts of number of surviving CD138^+ cells in control wells)×100%.
Ability of BMSCs to protect primary MM cells from daratumumab-induced ADCC was also evaluated in a FACS-based ADCC assay using methodology described above. In the assays, BM-MNCs containing at least 15% CD138^+ malignant plasma cells and sufficient numbers of autologous effector NK cells were incubated with daratumumab to induce ADCC. The BM-MNCs were tested either alone or in co-culture with autologous BMSCs to evaluate the effect of BMSCs. FACS-based viability assay was performed after 24 hours of culture to determine CD138^+ surviving cells and calculate lysis. […]

COCCn1c2c([n+](Cc3cnccn3)c1C)C(=O)c1ccccc1C2=O [YM155, 4,9-Dihydro-1-(2-methoxyethyl)-2-methyl-4,9-dioxo-3-(2-pyrazinylmethyl)-1H-naphth[2,3-d]imidazolium bromide]
viability of NK cells ([1]; BM-MNCs of MM patients, different doses of YM155): not affected; also recorded: does not negatively interfere | NK cell lysis ([1]; HD-PBMCs and patient BMMNCs, indicated concentrations of YM155): does not induce NK cell lysis | tumor growth (BLI) (MM cell line UM9): more pronounced | viability of MM cells (CD138+ cells) (MM cells (CD138+ cells)): some toxicity | lysis of cells (RPMI-8226 cells; absence of BMSCs): about 20% | lysis of cells (RPMI-8226 cells; presence of BMSCs): no effect

daratumumab: anti-CD38 antibody of IgG1/κ subtype, VH SEQ ID NO: 4 and VL SEQ ID NO: 5
tumor growth (BLI) (MM cell line UM9): marginal effect | daratumumab-induced ADCC (UM9 MM cells; absence of BMSCs): dose dependent fashion | sensitivity to daratumumab-induced ADCC (UM9 MM cells; presence of BMSCs): less sensitive | induction of ADCC of primary MM cells (primary CD138+ MM cells): less efficient | lysis of cells (RPMI-8226 cells; absence of BMSCs): about 20% | daratumumab-induced ADCC (RPMI-8226 cells; absence of BMSCs, serial concentrations, PBMC:MM 30:1): dose dependent fashion | lysis of cells (RPMI-8226 cells; presence of BMSCs): about 10% | sensitivity to daratumumab-induced ADCC (RPMI-8226 cells; presence of BMSCs, serial concentrations, PBMC:MM 30:1): less sensitive
